Measurements: patent publication US20250034125A1, “COMPOUNDS AND USES THEREOF” (JANSSEN PHARMACEUTICA NV, priority 2019, published 2025)
Like-named read-outs stand apart in the source and are kept apart here.

Tests used:
SCD1 = target: T1, SCD1 (Homo sapiens, UniProt O00767); experiment: Growth inhibition of yeast (ole1Δ) expressing human SCD1 as the sole desaturase; type: cell-based; settings: read-out: SCD1 IC50
T1 construct: host or cells: Saccharomyces cerevisiae ole1Δ strain (W303 pdr1Δ pdr3Δ background), plasmid pRS316, TDH3 promoter
T1 sequence (O00767 1-359): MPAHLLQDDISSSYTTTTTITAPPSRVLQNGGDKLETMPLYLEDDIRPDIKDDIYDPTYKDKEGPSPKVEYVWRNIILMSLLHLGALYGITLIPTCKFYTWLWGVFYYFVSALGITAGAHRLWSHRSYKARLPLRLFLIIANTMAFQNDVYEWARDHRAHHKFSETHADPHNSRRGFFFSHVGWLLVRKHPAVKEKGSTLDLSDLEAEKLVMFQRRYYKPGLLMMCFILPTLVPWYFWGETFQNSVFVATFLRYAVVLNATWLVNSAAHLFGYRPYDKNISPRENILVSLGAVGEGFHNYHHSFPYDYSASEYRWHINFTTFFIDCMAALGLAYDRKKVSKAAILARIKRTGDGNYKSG

SCD5 = target: T2, SCD5 (Homo sapiens, UniProt Q86SK9); experiment: Growth inhibition of yeast (ole1Δ) expressing human SCD5 as the sole desaturase; type: cell-based; settings: read-out: SCD5 IC50
T2 construct: host or cells: Saccharomyces cerevisiae ole1Δ strain (W303 pdr1Δ pdr3Δ background), plasmid pRS316, TDH3 promoter
T2 sequence (Q86SK9 1-330): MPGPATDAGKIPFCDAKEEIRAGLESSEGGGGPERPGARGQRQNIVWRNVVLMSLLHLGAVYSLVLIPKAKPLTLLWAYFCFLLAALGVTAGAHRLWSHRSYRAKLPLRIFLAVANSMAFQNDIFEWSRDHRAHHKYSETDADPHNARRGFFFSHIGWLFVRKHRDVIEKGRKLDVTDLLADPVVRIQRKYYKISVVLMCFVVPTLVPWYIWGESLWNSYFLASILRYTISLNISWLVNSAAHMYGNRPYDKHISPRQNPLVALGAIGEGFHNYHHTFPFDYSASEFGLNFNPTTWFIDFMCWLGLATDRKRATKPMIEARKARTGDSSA

[1] = yeast strain with SCD1 plasmid, OD600 growth read at 40 h
[2] = yeast strain with SCD5 plasmid, OD600 growth read at 40 h

IC50 (SCD1; [1]) [nM]	IC50 (SCD5; [2]) [nM]	IC50 (SCD1) [nM]	IC50 (SCD5) [nM]	SMILES
4490	220			Cn1nc(NC(=O)N2CCC(COc3ccccc3C(F)(F)F)CC2)ccc1=O [Compound 100, N-(1-methyl-6-oxo-1,6-dihydropyridazin-3-yl)-4-((2-(trifluoromethyl)phenoxy)methyl)piperidine-1-carboxamide]
		> 45000	> 45000	Cn1nc(NC(=O)N2CCC(COc3cccc(F)c3)CC2)ccc1=O [Compound 101, 4-((3-fluorophenoxy)methyl)-N-(1-methyl-6-oxo-1,6-dihydropyridazin-3-yl)piperidine-1-carboxamide]
> 45000	> 45000			Cn1nc(NC(=O)N2CCC(NCc3cc(F)cc(F)c3)CC2)ccc1=O [Compound 104, 4-(3,5-difluorobenzylamino)-N-(1-methyl-6-oxo-1,6-dihydropyridazin-3-yl)piperidine-1-carboxamide]
> 45000	> 45000			Cn1nc(NC(=O)N2CCC(NCc3ccccc3C(F)(F)F)CC2)ccc1=O [Compound 105, N-(1-methyl-6-oxo-1,6-dihydropyridazin-3-yl)-4-(2-(trifluoromethyl)benzylamino) piperidine-1-carboxamide]
> 45000	7930			Cn1nc(OC(=O)N2CCC(Oc3ccc(F)c(F)c3)CC2)ccc1=O [Compound 107]
9000	5010			Cn1nc(OC(=O)N2CCC(Oc3cc(F)cc(F)c3)CC2)ccc1=O [Compound 108]
> 45000	4850			Cn1nc(OC(=O)N2CCC(Cc3cc(F)cc(F)c3)CC2)ccc1=O [Compound 109]
> 45000	610			Cn1nc(-c2nc(N3CCC(Oc4cc(F)cc(F)c4)CC3)no2)ccc1=O [Compound 111, 6-(3-(4-(3,5-difluorophenoxy)piperidin-1-yl)-1,2,4-oxadiazol-5-yl)-2-methylpyridazin-3(2H)-one]
500	600			Cn1nc(-c2nc(N3CCC(Oc4cccc(F)c4Cl)CC3)no2)ccc1=O [Compound 112, 6-(3-(4-(2-chloro-3-fluorophenoxy)piperidin-1-yl)-1,2,4-oxadiazol-5-yl)-2-methylpyridazin-3(2H)-one]
> 45000	380			Cn1nc(-c2nc(N3CCC(Cc4ccccc4)CC3)no2)ccc1=O [Compound 113, 6-(3-(4-benzylpiperidin-1-yl)-1,2,4-oxadiazol-5-yl)-2-methylpyridazin-3(2H)-one]
450	10			Cn1nc(-c2nc(N3CCC(Cc4cc(F)cc(F)c4)CC3)no2)ccc1=O [Compound 115, 6-(3-(4-(3,5-difluorobenzyl)piperidin-1-yl)-1,2,4-oxadiazol-5-yl)-2-methylpyridazin-3(2H)-one]
26300	70			Cn1nc(-c2nnc(N3CCC(Cc4cc(F)cc(F)c4)CC3)o2)ccc1=O [Compound 118, 6-(5-(4-(3,5-difluorobenzyl)piperidin-1-yl)-1,3,4-oxadiazol-2-yl)-2-methylpyridazin-3(2H)-one]
> 45000	160			Cn1nc(-c2nnc(N3CCC(Cc4cccc(F)c4)CC3)o2)ccc1=O [Compound 119, 6-(5-(4-(3-fluorobenzyl)piperidin-1-yl)-1,3,4-oxadiazol-2-yl)-2-methylpyridazin-3(2H)-one]
180	10			Cn1nc(-c2nnc(N3CCC(Cc4cc(F)cc(F)c4)CC3)s2)ccc1=O [Compound 121, 6-(5-(4-(3,5-difluorobenzyl)piperidin-1-yl)-1,3,4-thiadiazol-2-yl)-2-methylpyridazin-3(2H)-one]
13600	1730			Cn1nc(-c2noc(N3CCC(Cc4cc(F)cc(F)c4)CC3)n2)ccc1=O [Compound 122, 6-(5-(4-(3,5-difluorobenzyl)piperidin-1-yl)-1,2,4-oxadiazol-3-yl)-2-methylpyridazin-3(2H)-one]
26000	140			Cn1nc(-c2cnc(N3CCC(Cc4cc(F)cc(F)c4)CC3)o2)ccc1=O [Compound 124, 6-(2-(4-(3,5-difluorobenzyl)piperidin-1-yl)oxazol-5-yl)-2-methylpyridazin-3(2H)-one]
4960	1150			CCn1nc(NC(=O)N2CCC(Cc3cc(F)cc(F)c3)CC2)ccc1=O [Compound 125, 4-(3,5-difluorobenzyl)-N-(1-ethyl-6-oxo-1,6-dihydropyridazin-3-yl)piperidine-1-carboxamide]
40	40			Cc1cc(NC(=O)N2CCC(Oc3cc(F)cc(F)c3)CC2)nn(C)c1=O [Compound 126]
200	200			Cc1cc(NC(=O)N2CCC(Oc3ccc(F)c(F)c3)CC2)nn(C)c1=O [Compound 127]
50	20			Cc1cc(NC(=O)N2CCC(Cc3cc(F)cc(F)c3)CC2)nn(C)c1=O [Compound 128]
310	80			Cc1cc(NC(=O)N2CCC(Cc3ccc(F)c(F)c3)CC2)nn(C)c1=O [Compound 129]
> 45000	> 45000			Cn1nc(NC(=O)N2CCC=C(c3ccc(Cl)cc3)CC2)ccc1=O [Compound 133, 4-(4-chlorophenyl)-N-(1-methyl-6-oxo-1,6-dihydropyridazin-3-yl)-2,3,6,7-tetrahydro-1H-azepine-1-carboxamide]
> 45000	> 45000			Cn1nc(NC(=O)N2CC=C(c3ccc(Cl)cc3)CCC2)ccc1=O [Compound 134, 5-(4-chlorophenyl)-N-(1-methyl-6-oxo-1,6-dihydropyridazin-3-yl)-2,3,4,7-tetrahydro-1H-azepine-1-carboxamide]

SMILES	IC50 (SCD1; [1]) [nM]	IC50 (SCD5; [2]) [nM]	IC50 (SCD1) [nM]	IC50 (SCD5) [nM]
Cn1nc(-c2nc(N3CCC(Cc4ccc(F)c(F)c4)CC3)no2)ccc1=O [Compound 116, 6-(3-(4-(3,4-difluorobenzyl)piperidin-1-yl)-1,2,4-oxadiazol-5-yl)-2-methylpyridazin-3(2H)-one]	860	10		
Cn1nc(-c2nc(N3CCC(Cc4cc(Cl)cc(C#N)c4)CC3)no2)ccc1=O [Compound 117, 3-chloro-5-((1-(5-(1-methyl-6-oxo-1,6-dihydropyridazin-3-yl)-1,2,4-oxadiazol-3-yl)piperidin-4-yl)methyl)benzonitrile]	2000	30		
Cn1nc(-c2noc(N3CCC(Cc4ccc(F)c(F)c4)CC3)n2)ccc1=O [Compound 123, 6-(5-(4-(3,4-difluorobenzyl)piperidin-1-yl)-1,2,4-oxadiazol-3-yl)-2-methylpyridazin-3(2H)-one]	4900	1400		
Cn1nc(NC(=O)N2CCN(Cc3cccc(Cl)c3)CC2)ccc1=O [Compound 130, 4-(3-chlorobenzyl)-N-(1-methyl-6-oxo-1,6-dihydropyridazin-3-yl)piperazine-1-carboxamide]	> 45000	15800		
